Starred links: 1 amine or outer side, 2 acyl side, 3 side chain; linkers in the order of their positions; H or OH if unused. Positions of bridges follow the written chain, without caps; N, C: chain ends. Non-standard residues stand in square brackets, D forms with d. Residues, ends and D or L forms follow the SMILES beside them. *: point of attachment. hPhe(3,5-F2-4-CF3) = N[C@@H](CCc1cc(F)c(C(F)(F)F)c(F)c1)C(=O)O; hPhe(3-Cl-4-CF3) = N[C@@H](CCc1ccc(C(F)(F)F)c(Cl)c1)C(=O)O; NMePhe(4-CF3) = CN[C@@H](Cc1ccc(C(F)(F)F)cc1)C(=O)O; hPhe(4-CF3) = N[C@@H](CCc1ccc(C(F)(F)F)cc1)C(=O)O; NMePhe(4-Cl) = CN[C@@H](Cc1ccc(Cl)cc1)C(=O)O; NMedβ3hAla = C[C@H](CC(=O)[*:2])N(C)[*:1]; Phe(3-Cl) = N[C@@H](Cc1cccc(Cl)c1)C(=O)O; X22 = O=C([C@@H]1Cc2ccccc2N1[*:1])[*:2]; NMeGly(cPent) = CN[C@H](C(=O)O)C1CCCC1; Pro(4,4-F2) = O=C(O)[C@@H]1CC(F)(F)CN1; NMeCha = CN[C@@H](CC1CCCCC1)C(=O)O; NMeChg = CN[C@H](C(=O)O)C1CCCCC1; NMeF = CN[C@@H](Cc1ccccc1)C(=O)O; dNMeF = CN[C@H](Cc1ccccc1)C(=O)O; NMeβAla = CN(CCC(=O)[*:2])[*:1]; NMeD = CN[C@@H](CC(=O)O)C(=O)O; NMeL = CN[C@@H](CC(C)C)C(=O)O; NMehSer = CN[C@@H](CCO)C(=O)O; NMeV = CN[C@H](C(=O)O)C(C)C; d(β3hA) = C[C@@H](N)CC(=O)O; NMeS = CN[C@@H](CO)C(=O)O; Pip = O=C(O)[C@@H]1CCCCN1; dPip = O=C(O)[C@H]1CCCCN1; NMeA = CN[C@@H](C)C(=O)O; Piperidide = C1CCN(*)CC1; Pyrrolidide = C1CCN(*)C1; Ac5c = NC1(C(=O)O)CCCC1; Aze = O=C(O)[C@@H]1CCN1; Thp = NC1(C(=O)O)CCOCC1; Ac4c = NC1(C(=O)O)CCC1; Sar = CNCC(=O)O; Propyl = CCC*

This assay has as its target T1, Kras and SOS1 (biotin-tagged human Kras loaded with GDP, His-tagged human SOS1) (Homo sapiens, UniProt P01116, G12D).
T1 construct: made in house; host or cells: E. coli (stated for Kras only)
Nature of the assay: Protein-protein interaction inhibition between Kras and SOS1 (KrasGl2D-SOS PPI) using AlphaScreen. The assay is classed as binding. As to conditions: AlphaScreen; biotin-tagged human Kras loaded with GDP, His-tagged human SOS1; read-out: KRAS G12D-SOS PPI IC50. The method in brief:
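Kras was produced in E. coli, purified, then loaded with GDP. It was paired via streptavidin acceptor beads with His-SOS1 held on nickel donor beads, and proximity signal at 520-620 nm was read after 680 nm illumination.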
On the technique in general: Alpha assays give light when donor and acceptor beads are brought close together.

T1 sequence (P01116 1-188 isoform P01116-2 G12D): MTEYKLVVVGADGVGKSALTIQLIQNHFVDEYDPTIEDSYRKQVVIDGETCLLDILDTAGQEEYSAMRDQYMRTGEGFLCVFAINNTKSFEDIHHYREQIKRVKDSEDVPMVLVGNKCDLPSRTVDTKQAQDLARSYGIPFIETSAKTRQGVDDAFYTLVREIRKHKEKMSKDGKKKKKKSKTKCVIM

Take `CC[C@H](C)[C@@H]1NC(=O)[C@H](CC(C)C)N(C)C(=O)C[C@@H](C(=O)N2CCCCC2)N(C)C(=O)[C@H](C2CCCCC2)N(C)C(=O)C2(CCCC2)NC(=O)[C@@H]2Cc3ccccc3N2C(=O)[C@H](CCc2ccc(C(F)(F)F)c(Cl)c2)NC(=O)CN(C)C(=O)[C@H](CC2CCCCC2)N(C)C(=O)[C@@H]2CCN2C(=O)CN(C)C1=O` [Compound 725] ([NMeL]I[Sar][Aze][NMeCha][Sar][hPhe(3-Cl-4-CF3)][X22][Ac5c][NMeChg][NMeD]-Piperidide; lactam N-11): the IC50 – broadly, the midpoint of a concentration-inhibition curve – stood at 7.8 nM. Regarding `CC[C@H](C)[C@@H]1NC(=O)[C@H](CC(C)C)N(C)C(=O)C[C@@H](C(=O)N2CCCCC2)N(C)C(=O)[C@H](C2CCCCC2)N(C)C(=O)C2(CCCC2)NC(=O)[C@@H]2CCCCN2C(=O)[C@H](CCc2ccc(C(F)(F)F)c(Cl)c2)NC(=O)CN(C)C(=O)[C@H](CC2CCCCC2)N(C)C(=O)CN(C)C(=O)CN(C)C1=O` [Compound 728] ([NMeL]I[Sar][Sar][NMeCha][Sar][hPhe(3-Cl-4-CF3)][Pip][Ac5c][NMeChg][NMeD]-Piperidide; lactam N-11), the IC50 amounted to 16 nM. For `CC[C@H](C)[C@@H]1NC(=O)[C@H](CC(C)C)N(C)C(=O)C[C@@H](C(=O)N(C)C)N(C)C(=O)[C@H](C2CCCC2)N(C)C(=O)[C@H](C)NC(=O)[C@@H](C)NC(=O)[C@H](CCc2ccc(C(F)(F)F)c(Cl)c2)NC(=O)CN(C)C(=O)[C@H](CC2CCCCC2)N(C)C(=O)[C@@H]2CCN2C(=O)[C@H](C)N(C)C1=O` [Compound 736] ([NMeL]I[NMeA][Aze][NMeCha][Sar][hPhe(3-Cl-4-CF3)][dA]A[NMeGly(cPent)][NMeD]-NMe2; lactam N-11), the IC50 turned out to be 37 nM. As to `CC[C@H](C)[C@@H]1NC(=O)[C@H](CC(C)C)N(C)C(=O)C[C@@H](C)N(C)C(=O)[C@H](C2CCCCC2)N(C)C(=O)C2(CCC2)NC(=O)[C@@H]2CC(F)(F)CN2C(=O)[C@H](CCc2cc(F)c(C(F)(F)F)c(F)c2)NC(=O)CN(C)C(=O)[C@H](CC2CCCCC2)N(C)C(=O)CN(C)C(=O)CN(C)C1=O` [Compound 738] (cyclo([Ac4c][NMeChg][NMedβ3hAla][NMeL]I[Sar][Sar][NMeCha][Sar][hPhe(3,5-F2-4-CF3)][Pro(4,4-F2)])), the IC50 came out at 15 nM.

For `CCCOC[C@H]1C(=O)N(C)[C@@H](CC(C)C)C(=O)N[C@H](C(=O)N2CCCC2)CC(=O)N(C)[C@@H](C)C(=O)N[C@@H]([C@@H](C)CC)C(=O)N(C)CC(=O)N(C)CC(=O)N(C)[C@@H](Cc2ccc(Cl)cc2)C(=O)N(C)CC(=O)N[C@@H](CCc2ccc(C(F)(F)F)cc2)C(=O)N[C@@H](CC(C)C)C(=O)N1C` [Compound 739] ([NMeA]I[Sar][Sar][NMePhe(4-Cl)][Sar][hPhe(4-CF3)]L[NMeS](Propyl)[NMeL]D-Pyrrolidide; lactam N-11), the IC50 amounted to 36 nM.

Turning to `CC[C@H](C)[C@@H]1NC(=O)[C@H](CC(C)C)N(C)C(=O)C[C@@H](C)N(C)C(=O)[C@H](CC(C)C)N(C)C(=O)C2(CCOCC2)NC(=O)[C@@H]2CCCN2C(=O)[C@H](CCc2ccc(C(F)(F)F)c(Cl)c2)NC(=O)CN(C)C(=O)[C@H](CC2CCCCC2)N(C)C(=O)CN(C)C(=O)CN(C)C1=O` [Compound 742] (cyclo(I[Sar][Sar][NMeCha][Sar][hPhe(3-Cl-4-CF3)]P[Thp][NMeL][NMedβ3hAla][NMeL])), the IC50 was 17 nM. Under `CC[C@H](C)[C@@H]1NC(=O)[C@H](CC(C)C)N(C)C(=O)C[C@@H](C(=O)N2CCCCC2)N(C)C(=O)[C@H](CCOC)N(C)C(=O)C2(CCCC2)NC(=O)[C@@H]2CCCN2C(=O)[C@H](CCc2ccc(C(F)(F)F)c(Cl)c2)NC(=O)CN(C)C(=O)[C@H](CC2CCCCC2)N(C)C(=O)CN(C)C(=O)CN(C)C1=O` [Compound 744] ([NMeL]I[Sar][Sar][NMeCha][Sar][hPhe(3-Cl-4-CF3)]P[Ac5c][NMehSer](Me)[NMeD]-Piperidide; lactam N-11) stands 7.5 nM. Take `CC[C@H](C)[C@@H]1NC(=O)[C@H](C)N(C)C(=O)C[C@@H](C)NC(=O)[C@H](C(C)C)N(C)C(=O)C2(CCCC2)NC(=O)[C@@H]2CCCN2C(=O)[C@H](CCc2ccc(C(F)(F)F)c(Cl)c2)NC(=O)[C@H]2CCCCN2C(=O)[C@H](CC2CCCCC2)N(C)C(=O)CN(C)C(=O)CN(C)C1=O` [Compound 746] (cyclo([Ac5c][NMeV][d(β3hA)][NMeA]I[Sar][Sar][NMeCha][dPip][hPhe(3-Cl-4-CF3)]P)): the IC50 turned out to be 130 nM. For `CC[C@H](C)[C@@H]1NC(=O)[C@H](CC(C)C)N(C)C(=O)C[C@@H](C)N(C)C(=O)[C@H](C2CCCCC2)N(C)C(=O)C2(CCC2)NC(=O)[C@@H]2CC(F)(F)CN2C(=O)[C@H](CCc2ccc(C(F)(F)F)c(Cl)c2)NC(=O)CN(C)C(=O)[C@H](Cc2ccc(C(F)(F)F)cc2)N(C)C(=O)CN(C)C(=O)CN(C)C1=O` [Compound 750] (cyclo([Ac4c][NMeChg][NMedβ3hAla][NMeL]I[Sar][Sar][NMePhe(4-CF3)][Sar][hPhe(3-Cl-4-CF3)][Pro(4,4-F2)])), the IC50 was determined as 28 nM. Take `CC[C@H](C)[C@@H]1NC(=O)[C@H](C)N(C)C(=O)C[C@@H](C)NC(=O)[C@H](CC(C)C)N(C)C(=O)[C@H](Cc2ccccc2)N(C)C(=O)[C@@H]2CCCN2C(=O)[C@H](CCc2ccc(C(F)(F)F)cc2)NC(=O)CN(C)C(=O)[C@H](Cc2ccc(Cl)cc2)N(C)C(=O)CN(C)C(=O)CN(C)C1=O` [Compound 751] (cyclo(I[Sar][Sar][NMePhe(4-Cl)][Sar][hPhe(4-CF3)]P[NMeF][NMeL][d(β3hA)][NMeA])): the IC50 amounted to 82 nM. For `CC[C@H](C)[C@@H]1NC(=O)[C@H](C)N(C)C(=O)C[C@@H](C(=O)N2CCCCC2)NC(=O)[C@H](C(C)C)N(C)C(=O)[C@H](Cc2ccccc2)N(C)C(=O)[C@H](CC(C)C)N(C)C(=O)[C@H](CCc2ccc(C(F)(F)F)cc2)NC(=O)CN(C)C(=O)[C@H](Cc2ccc(Cl)cc2)N(C)C(=O)CN(C)C(=O)CN(C)C1=O` [Compound 752] ([NMeA]I[Sar][Sar][NMePhe(4-Cl)][Sar][hPhe(4-CF3)][NMeL][NMeF][NMeV]D-Piperidide; lactam N-11), the IC50 was found to be 200 nM. In the case of `CC[C@H](C)[C@@H]1NC(=O)CCN(C)C(=O)[C@@H](Cc2ccccc2)N(C)C(=O)[C@H](C2CCCC2)N(C)C(=O)C2(CCCC2)NC(=O)[C@@H]2CCCN2C(=O)[C@H](CCc2ccc(C(F)(F)F)c(Cl)c2)NC(=O)CN(C)C(=O)[C@H](CC2CCCCC2)N(C)C(=O)CN(C)C(=O)CN(C)C1=O` [Compound 753] (cyclo([Ac5c][NMeGly(cPent)][dNMeF][NMeβAla]I[Sar][Sar][NMeCha][Sar][hPhe(3-Cl-4-CF3)]P)), the IC50 is 35 nM. In the case of `CC[C@H](C)[C@@H]1NC(=O)[C@H](C)N(C)C(=O)C[C@@H](C(=O)N2CCCC2)NC(=O)[C@H](CC(C)C)N(C)C(=O)[C@H](Cc2ccccc2)N(C)C(=O)[C@H](CC(C)C)NC(=O)[C@H](Cc2cccc(Cl)c2)NC(=O)CN(C)C(=O)[C@H](Cc2ccc(Cl)cc2)N(C)C(=O)CN(C)C(=O)CN(C)C1=O` [Compound 758] ([NMeA]I[Sar][Sar][NMePhe(4-Cl)][Sar][Phe(3-Cl)]L[NMeF][NMeL]D-Pyrrolidide; lactam N-11), the 50% inhibitory concentration (IC50) stood at 140 nM.

For the origin of these results see patent publication US12371454B2, “Cyclic peptide compound having Kras inhibitory action” (priority 2019, dated 2025).
